Here are results for one compound from US10174030B2 (priority 2014, dated 2019).

This assay concerns the target LSD1 (Homo sapiens (Human), UniProt O60341). The experiment in a line: biochemical. On the procedure: After stopping the reactions plates were incubated for 30 minutes and read on a PHERAstar FS plate reader (BMG Labtech).

Turning to `COc1ccc(CC2(CN[C@@H]3C[C@H]3c3ccccc3)CCN(CC3(C(=O)O)CC3)CC2)cn1` [Example 69, 1-{[4-[(6-methoxypyridin-3-yl)methyl]-4-({[(1R,2S)-2-phenylcyclopropyl]amino}methyl)piperidin-1-yl]methyl}cyclopropanecarboxylic acid], the concentration for half-maximal inhibition (IC50) is under 100 nM.

Broadly, the IC50 is the point on the concentration scale where inhibition reaches its midpoint. Read a low IC50 as greater potency in that assay.
